Results from patent US10597388B2, “Pyridazinone herbicides” (FMC CORPORATION, priority 2014, dated 2020).

Key:
Type in all cases: in vivo
[1] = system: ryegrass, Italian (Italian ryegrass, Lolium multiflorum); experiment: Test D controlled growth environment herbicide test, pre- and postemergence; settings: for Ryegrass, Italian plant response rating / Plant response rating (scale of 0 to 100), Ryegrass, Italian: 31 g ai/ha
How it was run: (§1)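 Rating is visual, 0–100 scale (100 = complete control), made against untreated plants 14–21 d after treatment in controlled growth conditions. Postemergence sprays went onto 1- to 4-leaf plants in peat medium; preemergence sprays onto silt loam after sowing; formulation included a surfactant.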

[2] = system: mustard, wild (wild mustard, Sinapis arvensis); experiment: as above; settings: for Mustard, Wild plant response rating / Plant response rating (scale of 0 to 100), Mustard, Wild: 31 g ai/ha
How it was run: as §1

[3] = system: buckwheat, wild (wild buckwheat, Polygonum convolvulus); experiment: as above; settings: for Buckwheat, Wild plant response rating / Plant response rating (scale of 0 to 100), Buckwheat, Wild: 31 g ai/ha
How it was run: as §1

[4] = system: crabgrass, Brazilian (Brazilian crabgrass, Digitaria horizontalis); experiment: Test E greenhouse herbicide test, pre- and postemergence
How it was run: (§2)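 Greenhouse pots; preemergence on silt loam, postemergence on plants 1- to 4-leaf (2 to 18 cm) grown in peat, vermiculite and nutrient medium. Test chemicals formulated in non-phytotoxic solvent with surfactant. Ratings taken after 14 to 21 d.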

[5] = system: momingglory (Ipomoea coccinea); experiment: as above; settings: Preemergence
How it was run: as §2

[6] = system: surinam grass (Brachiaria decumbens); experiment: as above; settings: Preemergence
How it was run: as §2

kochia (Kochia scoparia) = experiment: as above
How it was run: as §2

[7] = system: Italian ryegrass (Lolium multiflorum); experiment: as above
How it was run: as §2

[8] = system: crabgrass, large (large crabgrass, Digitaria sanguinalis); experiment: as above; settings: Preemergence
How it was run: as §2

[9] = system: nightshade (eastern black nightshade, Solanum ptycanthum); experiment: as above; settings: Preemergence
How it was run: as §2

[10] = Postemergence, scale 0 to 100 (0 no effect, 100 complete control)
[11] = Postemergence, 125 g ai/ha, visual rating on scale 0 (no effect) to 100 (complete control), 14 to 21 d
[12] = Postemergence, 250 g ai/ha, scale 0 to 100 (0 no effect, 100 complete control)
[13] = Preemergence, 62 g ai/ha, scale 0 to 100 (0 no effect, 100 complete control)
[14] = Preemergence, 125 g ai/ha, scale 0 to 100 (0 no effect, 100 complete control)
[15] = Preemergence, 250 g ai/ha, scale 0 to 100, 0 no effect, 100 complete control
[16] = postemergence, 62 g ai/ha, scale 0 to 100, 0 no effect, 100 complete control
[17] = 62 g ai/ha, Postemergence, scale 0 to 100 (0 no effect, 100 complete control)
[18] = 62 g ai/ha, Preemergence, scale 0 to 100 (0 no effect, 100 complete control)
[19] = 125 g ai/ha, Postemergence, scale 0 to 100 (0 no effect, 100 complete control)
[20] = 250 g ai/ha, Postemergence, scale 0 to 100 (0 no effect, 100 complete control)
[21] = Postemergence, 31 g ai/ha, visual, scale 0 no effect to 100 complete control
[22] = Preemergence, 31 g ai/ha, scale 0 to 100, 0 no effect, 100 complete control
[23] = Preemergence, 125 g ai/ha, visual, scale 0 no effect to 100 complete control
[24] = Preemergence, 250 g ai/ha, visual, scale 0 no effect to 100 complete control
[25] = 62 g ai/ha, scale 0 to 100 (0 no effect, 100 complete control)
[26] = 125 g ai/ha, scale 0 to 100 (0 no effect, 100 complete control)
[27] = 31 g ai/ha, scale 0 to 100, 0 no effect, 100 complete control
[28] = 250 g ai/ha, visual, scale 0 no effect to 100 complete control
[29] = 125 g ai/ha, Preemergence, scale 0 to 100 (0 no effect, 100 complete control)
[30] = 125 g ai/ha, visual, scale 0 no effect to 100 complete control

## CCc1sc2ccc(C)cc2c1-c1c(O)c(C)nn(C)c1=O [Compound 47]
[1]; [10]
  Ryegrass, Italian plant response rating: 10
[1]; [11]
  Plant response rating, Ryegrass, Italian: 30
[1]; [12]
  Plant response rating, Ryegrass, Italian: 45
[1]; Preemergence
  Plant response rating (scale of 0 to 100), Ryegrass, Italian: 20
[1]; [13]
  Plant response rating, Ryegrass, Italian: 30
[1]; [14]
  Plant response rating, Ryegrass, Italian: 60
[1]; [15]
  Plant response rating, Ryegrass, Italian: 70
[1]; [16]
  Plant response rating, Ryegrass, Italian: 10
[2]; [10]
  Mustard, Wild plant response rating: 0
[2]; [11]
  Plant response rating, Mustard, Wild: 15
[2]; [12]
  Plant response rating, Mustard, Wild: 25
[2]; Preemergence
  Plant response rating (scale of 0 to 100), Mustard, Wild: 10
[2]; [13]
  Plant response rating, Mustard, Wild: 20
[2]; [14]
  Plant response rating, Mustard, Wild: 40
[2]; [15]
  Plant response rating, Mustard, Wild: 65
[2]; [16]
  Plant response rating, Mustard, Wild: 0
[3]; [10]
  Buckwheat, Wild plant response rating: 60
[3]; [11]
  Plant response rating, Buckwheat, Wild: 90
[3]; [12]
  Plant response rating, Buckwheat, Wild: 100
[3]; Preemergence
  Plant response rating (scale of 0 to 100), Buckwheat, Wild: 70
[3]; [13]
  Plant response rating, Buckwheat, Wild: 60
[3]; [14]
  Plant response rating, Buckwheat, Wild: 70
[3]; [15]
  Plant response rating, Buckwheat, Wild: 85
[3]; [16]
  Plant response rating, Buckwheat, Wild: 75
[4]; [17]
  Plant response rating, Crabgrass, Brazil: 20
[4]; [18]
  Plant response rating, Crabgrass, Brazil: 0
[4]; [19]
  Plant response rating, Crabgrass, Brazil: 25
[4]; [20]
  Plant response rating, Crabgrass, Brazil: 40
[4]; [21]
  Plant response rating, Crabgrass, Brazil: 20
[4]; [22]
  Plant response rating, Crabgrass, Brazil: 0
[4]; [23]
  Plant response rating, Crabgrass, Brazil: 0
[4]; [24]
  Plant response rating, Crabgrass, Brazil: 60
[5]; [25]
  Plant response rating, Morningglory: 75
[5]; [26]
  Plant response rating, Morningglory: 100
[5]; [27]
  Plant response rating, Morningglory: 25
[5]; [28]
  Plant response rating, Morningglory: 100
[6]; [25]
  Plant response rating, Surinam Grass: 0
[6]; [26]
  Plant response rating, Surinam Grass: 35
[6]; [27]
  Plant response rating, Surinam Grass: 0
[6]; [28]
  Plant response rating, Surinam Grass: 35
Kochia (Kochia scoparia); [17]
  Plant response rating, Kochia: 70
Kochia (Kochia scoparia); [18]
  Plant response rating, Kochia: 85
Kochia (Kochia scoparia); [19]
  Plant response rating, Kochia: 80
Kochia (Kochia scoparia); [20]
  Plant response rating, Kochia: 85
Kochia (Kochia scoparia); [21]
  Plant response rating, Kochia: 60
Kochia (Kochia scoparia); [22]
  Plant response rating, Kochia: 0
Kochia (Kochia scoparia); [23]
  Plant response rating, Kochia: 75
Kochia (Kochia scoparia); [24]
  Plant response rating, Kochia: 100
[7]; [17]
  Plant response rating, Ryegrass, Italian: 0
[7]; [18]
  Plant response rating, Ryegrass, Italian: 30
[7]; [19]
  Plant response rating, Ryegrass, Italian: 0
[7]; [29]
  Plant response rating, Ryegrass, Italian: 30
[7]; [20]
  Plant response rating, Ryegrass, Italian: 10
[7]; [21]
  Plant response rating, Ryegrass, Italian: 0
[7]; [22]
  Plant response rating, Ryegrass, Italian: 5
[7]; [24]
  Plant response rating, Ryegrass, Italian: 50
[8]; [25]
  Plant response rating, Crabgrass, Large: 0
[8]; [27]
  Plant response rating, Crabgrass, Large: 0
[8]; [30]
  Plant response rating, Crabgrass, Large: 0
[8]; [28]
  Plant response rating, Crabgrass, Large: 35
[9]; [25]
  Plant response rating, Nightshade: 98
[9]; [26]
  Plant response rating, Nightshade: 100
[9]; [27]
  Plant response rating, Nightshade: 80
[9]; [28]
  Plant response rating, Nightshade: 100

## CCc1sc2c(C)cc(C)cc2c1-c1c(O)c(C)nn(C)c1=O [Compound 57]
[1]; [10]
  Ryegrass, Italian plant response rating: 25
[1]; [11]
  Plant response rating, Ryegrass, Italian: 75
[1]; [12]
  Plant response rating, Ryegrass, Italian: 85
[1]; Preemergence
  Plant response rating (scale of 0 to 100), Ryegrass, Italian: 55
[1]; [13]
  Plant response rating, Ryegrass, Italian: 75
[1]; [14]
  Plant response rating, Ryegrass, Italian: 80
[1]; [15]
  Plant response rating, Ryegrass, Italian: 95
[1]; [16]
  Plant response rating, Ryegrass, Italian: 50
[2]; [10]
  Mustard, Wild plant response rating: 30
[2]; [11]
  Plant response rating, Mustard, Wild: 30
[2]; [12]
  Plant response rating, Mustard, Wild: 40
[2]; Preemergence
  Plant response rating (scale of 0 to 100), Mustard, Wild: 0
[2]; [13]
  Plant response rating, Mustard, Wild: 25
[2]; [14]
  Plant response rating, Mustard, Wild: 25
[2]; [15]
  Plant response rating, Mustard, Wild: 30
[2]; [16]
  Plant response rating, Mustard, Wild: 30
[3]; [10]
  Buckwheat, Wild plant response rating: 80
[3]; [11]
  Plant response rating, Buckwheat, Wild: 85
[3]; [12]
  Plant response rating, Buckwheat, Wild: 100
[3]; Preemergence
  Plant response rating (scale of 0 to 100), Buckwheat, Wild: 0
[3]; [13]
  Plant response rating, Buckwheat, Wild: 10
[3]; [14]
  Plant response rating, Buckwheat, Wild: 10
[3]; [15]
  Plant response rating, Buckwheat, Wild: 100
[3]; [16]
  Plant response rating, Buckwheat, Wild: 85
[4]; [17]
  Plant response rating, Crabgrass, Brazil: 20
[4]; [18]
  Plant response rating, Crabgrass, Brazil: 0
[4]; [19]
  Plant response rating, Crabgrass, Brazil: 20
[4]; [20]
  Plant response rating, Crabgrass, Brazil: 30
[4]; [21]
  Plant response rating, Crabgrass, Brazil: 15
[4]; [22]
  Plant response rating, Crabgrass, Brazil: 0
[4]; [23]
  Plant response rating, Crabgrass, Brazil: 40
[4]; [24]
  Plant response rating, Crabgrass, Brazil: 70
[5]; [25]
  Plant response rating, Morningglory: 40
[5]; [26]
  Plant response rating, Morningglory: 100
[5]; [27]
  Plant response rating, Morningglory: 85
[5]; [28]
  Plant response rating, Morningglory: 100
[6]; [25]
  Plant response rating, Surinam Grass: 70
[6]; [26]
  Plant response rating, Surinam Grass: 85
[6]; [27]
  Plant response rating, Surinam Grass: 5
[6]; [28]
  Plant response rating, Surinam Grass: 95
Kochia (Kochia scoparia); [17]
  Plant response rating, Kochia: 70
Kochia (Kochia scoparia); [18]
  Plant response rating, Kochia: 65
Kochia (Kochia scoparia); [19]
  Plant response rating, Kochia: 60
Kochia (Kochia scoparia); [20]
  Plant response rating, Kochia: 75
Kochia (Kochia scoparia); [21]
  Plant response rating, Kochia: 50
Kochia (Kochia scoparia); [22]
  Plant response rating, Kochia: 20
Kochia (Kochia scoparia); [23]
  Plant response rating, Kochia: 75
Kochia (Kochia scoparia); [24]
  Plant response rating, Kochia: 100
[7]; [17]
  Plant response rating, Ryegrass, Italian: 0
[7]; [18]
  Plant response rating, Ryegrass, Italian: 35
[7]; [19]
  Plant response rating, Ryegrass, Italian: 20
[7]; [29]
  Plant response rating, Ryegrass, Italian: 65
[7]; [20]
  Plant response rating, Ryegrass, Italian: 50
[7]; [21]
  Plant response rating, Ryegrass, Italian: 0
[7]; [22]
  Plant response rating, Ryegrass, Italian: 10
[7]; [24]
  Plant response rating, Ryegrass, Italian: 80
[8]; [25]
  Plant response rating, Crabgrass, Large: 0
[8]; [27]
  Plant response rating, Crabgrass, Large: 0
[8]; [30]
  Plant response rating, Crabgrass, Large: 0
[8]; [28]
  Plant response rating, Crabgrass, Large: 0
[9]; [25]
  Plant response rating, Nightshade: 98
[9]; [26]
  Plant response rating, Nightshade: 98
[9]; [27]
  Plant response rating, Nightshade: 90
[9]; [28]
  Plant response rating, Nightshade: 98
